Source: patent US11986465B1, “2-amino-4-(4-bromophenyl)-6-ethoxypyridine-3,5-dicarbonitrile as an antibacterial compound” (KING FAISAL UNIVERSITY, priority 2023, dated 2024)

Key:
Type in all cases: cell-based
Staphylococcus aureus = assay: Agar plate disc-diffusion antibacterial test, Staphylococcus aureus; settings: Gram positive
Protocol: (§1) The agar plate disc-diffusion method was applied. […] The discs were then placed onto the surface of agar plates (nutrient agar for bacteria) seeded with the test organism. Each plate contained 15 mL of the agar medium, previously seeded with 0.2 mL of the broth culture of each organism pregrown for 18 hours. The inhibition zones were measured in millimeters (mm). Discs impregnated with DMSO were used as a control, and its inhibition zone was subtracted from the tested compound's actual inhibition zone.
(§2) The antibacterial activity was screened against gram positive bacteria namely Bacillus cereus and Staphylococcus aureus and gram-negative bacterial strains namely Pseudomonas aeruginosa and Escherichia coli using ciprofloxacin as a reference, as shown in Table 1.

Escherichia coli = assay: Agar plate disc-diffusion antibacterial test, Escherichia coli; settings: Gram negative
Protocol: as §1, §2

Bacillus cereus = assay: Agar plate disc-diffusion antibacterial test, Bacillus cereus; settings: Gram positive
Protocol: as §1, §2

Pseudomonas aeruginosa = assay: Agar plate disc-diffusion antibacterial test, Pseudomonas aeruginosa; settings: Gram negative
Protocol: as §1, §2

[1] = A = concentration of comp. = 10,000 μL
[2] = B = concentration of comp. = 30.000 μL
[3] = C = concentration of comp. = 50,000 μL

SMILES: CCOc1nc(N)c(C#N)c(-c2ccc(Br)cc2)c1C#N [Compound 3, 2-amino-4-(4-bromophenyl)-6-ethoxypyridine-3,5-dicarbonitrile]
- inhibition zone, Staphylococcus aureus, A (Staphylococcus aureus; [1]): 19 mm
- inhibition zone, Staphylococcus aureus, B (Staphylococcus aureus; [2]): 26 mm
- inhibition zone, Staphylococcus aureus, C (Staphylococcus aureus; [3]): 31 mm
- inhibition zone, Escherichia coli, A (Escherichia coli; [1]): 37 mm
- inhibition zone, Escherichia coli, B (Escherichia coli; [2]): 40 mm
- inhibition zone, Escherichia coli, C (Escherichia coli; [3]): 44 mm
- inhibition zone, Bacillus Cereus, A (Bacillus cereus; [1]): 30 mm
- inhibition zone, Bacillus Cereus, B (Bacillus cereus; [2]): 36 mm
- inhibition zone, Bacillus Cereus, C (Bacillus cereus; [3]): 41 mm
- inhibition zone, Pseudomonas aeruginosa, A (Pseudomonas aeruginosa; [1]): 23 mm
- inhibition zone, Pseudomonas aeruginosa, B (Pseudomonas aeruginosa; [2]): 33 mm
- inhibition zone, Pseudomonas aeruginosa, C (Pseudomonas aeruginosa; [3]): 39 mm
